System: VEGF high-expressing pancreatic cancer cells (KP-1/VEGF)
Test: Antitumor activity on KP-1/VEGF cells in subcutaneous xenograft models
Assay type: in vivo, mouse
Conditions: 60 mg/kg/day, oral twice a day, 2 weeks, Balb/c (nu/nu) mice
Procedure: VEGF high-expressing pancreatic cancer cells (KP-1/VEGF) suspended in PBS at a concentration of 1×10^7 cells/ml were transplanted under the right flank skin of 6-week-old female Balb/c (nu/nu) mice in a volume of 0.1 ml. When the tumor volume reached approximately 100 mm^3, the test substance was orally administered twice a day over a period of 2 weeks with a schedule of 5 days per week. The test substance was suspended in 0.5% methyl cellulose for an administered volume of 0.1 ml/10 g body weight. The tumor size was measured twice a week using a micrometer caliper. The tumor volume was determined by measuring the long and short diameters of the tumor with a micrometer caliper, and calculating ½×(long diameter×short diameter×short diameter). The experiment was conducted using 10 mice in the control (solvent-administered) group and 5 mice in each test substance-administered group.

CNC(=O)n1ccc2cc(Oc3ccnc(NC(=O)N4CCC(N5CCCC5)CC4)c3)ccc21 [Example 46, N1-Methyl-5-(2-(((4-(pyrrolidin-1-yl)piperidin-1-yl)carbonyl)amino)pyridin-4-yloxy)-1H-1-indolecarboxamide]
proportion of the tumor volume to that of control: 60.0%

— patent US7468380B2, “Nitrogen-containing aromatic derivatives” (Eisai R&D Management Co., Ltd., priority 2002, dated 2008)
